The text below walks through data of patent US8263622B2, “Fused-ring derivative and medical application of same” (Kissei Pharmaceutical Co., Ltd., priority 2008, dated 2012).

The target in one assay is T1, human URAT1 (Homo sapiens, UniProt Q96S37).
T1 construct: expressed in transfected cells; host or cells: COS7 cells (RIKEN CELL BANK RCB0539), transient, pcDNA3.1
T1 sequence (Q96S37 1-553): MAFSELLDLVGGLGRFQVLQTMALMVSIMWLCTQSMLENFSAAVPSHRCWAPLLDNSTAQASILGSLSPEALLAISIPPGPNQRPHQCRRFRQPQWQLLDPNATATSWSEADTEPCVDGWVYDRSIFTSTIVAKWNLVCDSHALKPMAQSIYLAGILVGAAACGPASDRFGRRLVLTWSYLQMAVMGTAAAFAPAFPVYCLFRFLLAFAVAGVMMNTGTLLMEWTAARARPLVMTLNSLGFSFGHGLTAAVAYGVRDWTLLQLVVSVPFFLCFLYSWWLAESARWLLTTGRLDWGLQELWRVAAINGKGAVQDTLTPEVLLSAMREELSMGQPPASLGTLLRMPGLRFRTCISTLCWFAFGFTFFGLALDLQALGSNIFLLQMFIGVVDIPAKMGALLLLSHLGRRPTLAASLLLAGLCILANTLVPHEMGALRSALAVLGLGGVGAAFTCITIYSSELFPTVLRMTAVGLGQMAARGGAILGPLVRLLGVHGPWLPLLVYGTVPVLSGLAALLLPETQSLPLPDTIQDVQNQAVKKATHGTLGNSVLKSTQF
Description: Inhibitory activity of uric acid transport with human URAT1 expressing cells. Conditions: COS-7; concentration of 100 μM; 14C-uric acid uptake (20 μM) in COS7 cells transiently expressing human URAT1, 5 minutes, 37° C.; read-out: Percent inhibition. Format: cell-based. On the procedure:
(1) Preparation of Transiently Human URAT1 Expressing Cells
Full length human URAT1 cDNA (NCBI Accession No. NM_144585) was subcloned into expression vector, pcDNA3.1 (Invitrogen). Human URAT1 expression vector was transfected into COS7 cells (RIKEN CELL BANK RCB0539) using Lipofectamine 2000 (Invitrogen). COS7 cells were seeded in collagen-coated 24 well plates (Japan Becton Dickinson) at 90-95% confluency and cultured in D-MEM culture medium (Invitrogen) containing 10% fetal bovine serum (Sanko Junyaku) for 2 hours at 37° C. under the condition of 5% CO2. For 1 well, 2 μL of Lipofectamine 2000 was diluted in 50 μL of OPTI-MEM (Invitrogen) and allowed to stand at room temperature for 7 minutes (hereinafter referred to as Lipo2000-OPTI). For 1 well, 0.8 μg of human URAT1 expression vector was diluted in 50 μL of OPTI-MEM (Invitrogen) and combined gently with Lipo2000-OPTI. After standing at room temperature for 25 minutes, the mixture was added to COS7 cells at 100 μL/well. Furthermore, COS7 cells were cultured for 2 days at 37° C. under the condition of 5% CO2 and used for measuring inhibitory activity on the uptake.
(2) Preparation of Test Compounds
Test compounds were dissolved in DMSO (Wako) at 10 mM concentration and then diluted to 2 times higher concentration than intended with pre-treatment buffer (125 mM sodium gluconate, 4.8 mM potassium gluconate, 1.2 mM potassium dihydrogen phosphate, 1.2 mM magnesium sulfate, 1.3 mM calcium gluconate, 5.6 mM glucose, 25 mM Hepes, pH 7.4). Pre-treatment buffer without test compounds was used for control. In addition, an equal volume of pre-treatment buffer containing ^14C-labeled uric acid (American Radiolabeled Chemicals, Inc.) was added to test compounds and control, and finally assay buffer including 20 μM uric acid was prepared.
(3) Method for Measurement
All tests were performed on hot-plate at 37° C. Pre-treatment buffer and assay buffer were incubated at 37° C. and then used for assays. Medium was removed from plates, and 700 μL of pre-treatment buffer was added, and the cells were pre-incubated for 10 minutes. After repeating same step, pre-treatment buffer was removed, and assay buffer was added at 400 μL/well. The uptake reaction was carried out for 5 minutes. After terminating the reaction, assay buffer was rapidly removed, and the cells were washed twice with addition of ice-cold pre-treatment buffer at 1.2 mL/well. Then, the cells were lysed by addition of 0.2N sodium hydroxide at 300 μL/well. The lysed solutions were transferred into Picoplate (PerkinElmer), and Microscinti 40 (PerkinElmer) was added at 600 μL/well. After mixing, the radioactivity was counted in a liquid scintillation counter (PerkinElmer). The radioactivity in COS7 cells not transfected with URAT1 expression vector was also counted under the same condition as control. […] As a result, it was shown that all Examples 2, 6, 7, 12, 13, 15, 22 and 31 have over 80% inhibition in a concentration of 100 μM. Percent inhibition (%)=[1−(B−C)/(A−C)]×100 A: Radioactivity in control B: Radioactivity in the case of addition of test compounds C: Radioactivity in COST cells not transfected with URAT1 expression vector

Assay [1] addresses T2, Xanthine oxidase (from bovine milk, Sigma) (Bos taurus, UniProt P80457).
T2 construct: Xanthine oxidase (from bovine milk, Sigma); purchased Sigma; host or cells: bovine milk
Description: Xanthine oxidase inhibitory activity. Conditions: xanthine substrate, absorbance at 290 nm, 10 minutes at room temperature. Format: biochemical. As to the method: (1) Preparation of Test Compounds
Test compounds were dissolved in DMSO (Wako) at 40 mM concentration and then diluted to intended concentrations with phosphate-buffered saline (PBS).
(2) Method for Measurement
Xanthine oxidase (from bovine milk, Sigma) was prepared with phosphate-buffered saline (PBS) at 0.02 units/mL, and then the solution was added to 96 well plates at 50 μL/well. In addition, test compounds diluted with PBS were added at 50 μL/well. Xanthine (Wako) at 200 μM prepared with PBS was added at 100 μL/well, and the reaction was measured for 10 minutes at room temperature. Absorbance at 290 nm was measured using a microplate reader SpectraMax Plus 384 (Molecular device). The absorbance under a condition without xanthine is 0%, and control without test compounds is 100%. Fifty % inhibitory concentration (IC50) of test compounds was calculated (Table 11). Ex. No. in the table indicates example number.

Some results are limits rather than exact numbers.

T2 sequence (P80457 whole entry): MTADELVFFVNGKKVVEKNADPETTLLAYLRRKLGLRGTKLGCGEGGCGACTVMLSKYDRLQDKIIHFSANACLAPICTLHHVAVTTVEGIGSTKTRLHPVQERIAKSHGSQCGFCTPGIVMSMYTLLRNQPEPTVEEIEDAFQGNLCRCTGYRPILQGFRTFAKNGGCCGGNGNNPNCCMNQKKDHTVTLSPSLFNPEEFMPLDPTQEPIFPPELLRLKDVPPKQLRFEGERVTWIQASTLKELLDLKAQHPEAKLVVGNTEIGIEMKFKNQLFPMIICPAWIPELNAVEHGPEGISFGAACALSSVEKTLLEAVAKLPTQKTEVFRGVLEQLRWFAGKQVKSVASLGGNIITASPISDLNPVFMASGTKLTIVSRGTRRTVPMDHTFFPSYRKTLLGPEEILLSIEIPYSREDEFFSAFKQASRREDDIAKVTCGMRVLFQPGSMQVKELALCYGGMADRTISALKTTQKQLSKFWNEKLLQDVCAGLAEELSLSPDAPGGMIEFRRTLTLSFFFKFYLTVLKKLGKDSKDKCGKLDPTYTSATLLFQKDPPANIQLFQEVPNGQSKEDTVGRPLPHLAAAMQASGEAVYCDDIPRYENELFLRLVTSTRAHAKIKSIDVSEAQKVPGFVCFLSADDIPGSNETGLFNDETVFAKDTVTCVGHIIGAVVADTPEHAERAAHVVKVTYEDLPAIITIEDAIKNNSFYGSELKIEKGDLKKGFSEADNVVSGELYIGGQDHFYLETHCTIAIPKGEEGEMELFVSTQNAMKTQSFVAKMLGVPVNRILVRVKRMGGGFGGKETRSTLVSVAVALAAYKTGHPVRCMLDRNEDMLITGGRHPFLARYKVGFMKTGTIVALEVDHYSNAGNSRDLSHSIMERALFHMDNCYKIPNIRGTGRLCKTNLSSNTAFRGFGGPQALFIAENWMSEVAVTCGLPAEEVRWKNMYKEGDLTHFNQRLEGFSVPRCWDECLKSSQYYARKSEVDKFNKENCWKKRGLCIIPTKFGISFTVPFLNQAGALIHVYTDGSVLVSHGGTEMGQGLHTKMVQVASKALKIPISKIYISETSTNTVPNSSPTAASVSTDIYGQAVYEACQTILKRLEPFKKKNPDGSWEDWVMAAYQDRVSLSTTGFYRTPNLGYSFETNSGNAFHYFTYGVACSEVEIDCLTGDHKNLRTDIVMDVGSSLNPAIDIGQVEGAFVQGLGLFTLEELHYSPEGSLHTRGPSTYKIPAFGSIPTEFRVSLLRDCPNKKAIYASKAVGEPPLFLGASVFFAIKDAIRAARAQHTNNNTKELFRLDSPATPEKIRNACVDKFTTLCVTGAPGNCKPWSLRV

The term inhibition denotes the relative decrease from the control value, in per cent. One may read the IC50 as the concentration at which inhibition is half-maximal. Low values mean greater potency in that assay, high ones weaker potency in that assay. With `Cc1nc(-c2cc(C#N)c3cccc(F)c3c2)sc1C(=O)O` [Example 13], at human URAT1, the inhibition at 100 µM is above 80%. Further, it took 8 nM to reach half-maximal inhibition in assay [1] (IC50).
For `Cc1nc(-c2cc(C#N)c3ccccc3c2)sc1C(=O)O` [Example 7, 2-(4-Cyanonaphthalene-2-yl)-4-methylthiazole-5-carboxylic acid], in that order: above 80% and 7 nM.
Turning to `Cc1ccc2cc(-c3nc(C)c(C(=O)O)s3)cc(C#N)c2c1` [Example 8, 2-(4-Cyano-6-methylnaphthalene-2-yl)-4-methylthiazole-5-carboxylic acid], inhibition in assay [1] was half-maximal at 11 nM (IC50). This counts as double-digit nanomolar.
In the case of `Cc1nc(-c2cc(C#N)c3ccc(F)cc3c2)sc1C(=O)O` [Example 12], the inhibition at 100 µM at human URAT1 was above 80%. The half-inhibitory concentration (IC50) in assay [1] was 4 nM.
For the compound `N#Cc1cc(-c2ccc(C(=O)O)c(O)c2)nc2ccccc12` [Example 6, 4-(4-Cyanoquinoline-2-yl)-2-hydroxy-benzoic acid], at human URAT1, the inhibition at 100 µM was above 80%. In assay [1], this compound registered an IC50 of 8 nM.
In assay [1], `N#Cc1cc(-c2cc(C(=O)O)ccn2)cc2ccccc12` [Example 1, 2-(4-Cyanonaphthalene-2-yl)isonicotinic acid] came in with an IC50 of 11 nM. This counts as double-digit nanomolar.
On to `Cc1nc(-c2cc(C#N)c3c(C)ccc(F)c3c2)sc1C(=O)O` [Example 15], for which, at human URAT1, the inhibition at 100 µM is above 80%. In assay [1], the IC50 was 7 nM.
Consider `N#Cc1cc(-c2ccc(C(=O)O)cc2)cc2ccccc12` [Example 4, 4-(4-Cyanonaphthalene-2-yl)benzoic acid], for which, in assay [1], the 50% inhibitory concentration (IC50) is 20 nM.
In the case of `Cc1ccc2c(C#N)cc(-c3nc(C)c(C(=O)O)s3)cc2c1` [Example 9], half-maximal inhibition in assay [1] (IC50) was put at 26 nM.
For `N#Cc1cc(-c2ncc(C(=O)O)s2)cc2ccccc12` [Example 31], the inhibition at 100 µM at human URAT1 is above 80%. The compound further had a half-inhibitory concentration (IC50) in assay [1] of 2 nM.
In the case of `N#Cc1cc(-c2cc(C(=O)O)c(O)cn2)cc2ccccc12` [Example 2, 2-(4-Cyanonaphthalene-2-yl)-5-hydroxyisonicotinic acid], the inhibition at 100 µM on human URAT1 was above 80%. This compound came in with an IC50 in assay [1] of 13 nM.
On to `N#Cc1cc(-c2ccc(C(=O)O)cc2)nc2ccccc12` [Example 5, 4-(4-Cyanoquinoline-2-yl)benzoic acid], for which, in assay [1], the 50% inhibitory concentration (IC50) amounted to 81 nM.
Turning to `Cc1nc(-c2cc(C#N)c3c(F)cccc3c2)sc1C(=O)O` [Example 22], the inhibition at 100 µM at human URAT1 is above 80%. The compound further registered a concentration for half-maximal inhibition (IC50) in assay [1] of 7 nM.
